Results published in ChEMBL document CHEMBL6178021, “Optimization of Tambjamines Active against Multiple Stages of Malaria Parasites” (J Med Chem, 2025).
In brackets after ≈: the same amount, converted by molar mass.

Key:
[1] = Metabolic stability in mouse liver microsomes assessed as half life measured up to 60 mins by LC/MS analysis; assay type: ADME, Microsome
in vitro [2] = settings: human, liver microsomes
MDR1 (human) [3] = assay: Apparent permeability across apical to basolateral side in MDCK transfected with human MDR1 cells incubated for 1 hr by LC-MS analysis; settings: dog, MDCK-MDR1
MDR1 (human) [4] = assay: Efflux ratio, ratio of apparent permeability across apical to basolateral side over basolateral to apical side in MDCK transfected with human MDR1 cells incubated for 1 hr by LC-MS analysis; settings: dog
Plasmodium yoelii [5] = assay: Antimalarial activity against erythrocytic Plasmodium yoelii MRA-428 infected in CF1 mouse assessed as reduction in parasitemia at 50 mg/kg, po once daily for 4 days measured on day 5; assay type: functional; parameters: scale not given: the % may be the effect or the level left; settings: time 4 day
MDR1 (human) [6] = assay: Apparent permeability across basolateral to apical side in MDCK transfected with human MDR1 cells incubated for 1 hr by LC-MS analysis; settings: dog, MDCK-MDR1
Plasmodium falciparum [7] = assay: microbe, parasite or virus in culture; settings: Dd2, 72 h
Description: Antiplasmodial activity against asexual blood-stage Plasmodium falciparum Dd2 using 2% haematocrit and 0.2% parasitemia assessed as reduction in fluorescence measured after 72 hrs by Malaria SYBR Green I-based Fluorescence (MSF) assay

Plasmodium falciparum [8] = assay: Antiplasmodial activity against asexual blood-stage Plasmodium falciparum Tm90-C2B using 2% haematocrit and 0.2% parasitemia assessed as reduction in fluorescence measured after 72 hrs by Malaria SYBR Green I-based Fluorescence (MSF) assay; assay type: functional, organism-based
[9] = Solubility of the compound in potassium phosphate buffer at pH 7.4 by UV-vis spectroscopy; settings: buffer
[10] = Metabolic stability in human liver microsomes assessed as half life measured up to 60 mins by LC/MS analysis; assay type: ADME, Microsome
in vitro [11] = settings: mouse, liver microsomes
HepG2 = assay: Cytotoxicity against human HepG2 cells assessed as cell viability measured after 48 hrs by MTT assay; assay type: toxicity, cell-based; settings: hepg2
in vitro [12] = settings: human
Description: Selectivity index, ratio of IC50 for cytotoxicity against human HepG2 cells to IC50 for antiplasmodial activity against asexual blood-stage Plasmodium falciparum D6

Plasmodium yoelii [13] = assay: Antimalarial activity against erythrocytic Plasmodium yoelii MRA-428 infected in CF1 mouse assessed as cured mouse at 50 mg/kg, po once daily for 4 days measured on day 28 day; assay type: functional, organism-based; settings: time 4.0 day
Plasmodium yoelii [14] = assay: Antimalarial activity against erythrocytic Plasmodium yoelii MRA-428 infected in CF1 mouse assessed as reduction in parasitemia at 25 mg/kg, po once daily for 4 days measured on day 5; assay type: functional; parameters: scale not given: the % may be the effect or the level left; settings: time 4 day
Plasmodium yoelii [15] = assay: Antimalarial activity against erythrocytic Plasmodium yoelii MRA-428 infected in CF1 mouse assessed as cured mouse at 25 mg/kg, po once daily for 4 days measured on day 28 day; assay type: functional, organism-based; settings: time 4.0 day
Plasmodium falciparum [16] = assay: microbe, parasite or virus in culture; settings: D6, 72 h
Description: Antiplasmodial activity against asexual blood-stage Plasmodium falciparum D6 using 2% haematocrit and 0.2% parasitemia assessed as reduction in fluorescence measured after 72 hrs by Malaria SYBR Green I-based Fluorescence (MSF) assay

Plasmodium yoelii [17] = assay: Antimalarial activity against erythrocytic Plasmodium yoelii MRA-428 infected in CF1 mouse assessed as reduction in parasitemia at 80 mg/kg, po once daily for 4 days measured on day 5; assay type: functional; parameters: scale not given: the % may be the effect or the level left; settings: time 4 day
Plasmodium yoelii [18] = assay: Antimalarial activity against erythrocytic Plasmodium yoelii MRA-428 infected in CF1 mouse assessed as reduction in parasitemia at 10 mg/kg, po once daily for 4 days measured on day 5; assay type: functional; parameters: scale not given: the % may be the effect or the level left; settings: time 4 day
Plasmodium yoelii [19] = assay: Antimalarial activity against erythrocytic Plasmodium yoelii MRA-428 infected in CF1 mouse assessed as cured mouse at 80 mg/kg, po once daily for 4 days measured on day 28 day; assay type: functional, organism-based; settings: time 4.0 day

half-life [1] | Papp A→B at 1 h (MDR1 (human) [3]) | efflux ratio at 1 h (MDR1 (human) [4]) | Papp B→A at 1 h (MDR1 (human) [6]) | IC50 (Plasmodium falciparum [7]) | IC50 (Plasmodium falciparum [8]) | solubility [9] | half-life [10] | SMILES | microsomal CLint at 1 h (in vitro [2]) | Activity (Plasmodium yoelii [5]) | microsomal CLint at 1 h (in vitro [11]) | IC50 (HepG2) | selectivity ratio (in vitro [12]) | Activity (Plasmodium yoelii [13]) | Activity (Plasmodium yoelii [14]) | Activity (Plasmodium yoelii [15]) | IC50 (Plasmodium falciparum [16]) | Activity (Plasmodium yoelii [17]) | Activity (Plasmodium yoelii [18]) | Activity (Plasmodium yoelii [19])
10.3 min | 0.23 ×10⁻⁶ cm/s | 4.8 | 1.1 ×10⁻⁶ cm/s | 157 nM | 170 nM | 383 µM (≈ 135 µg/mL) | 16.7 min | COC(=O)[C@H]1CC[C@H](N/C=C2\N=C(c3ccc[nH]3)C3=C2CCCC3)CC1 | 82.9 µL/min/mg | 100% | 134 µL/min/mg | 19.9 µM | 334 | – | – | – | – | – | – | –
> 60 min | 1.2 ×10⁻⁶ cm/s | 0.43 | 0.52 ×10⁻⁶ cm/s | 49.6 nM | 32.7 nM | 237 µM (≈ 86.1 µg/mL) | 33.9 min | FC(F)(F)[C@H]1CC[C@H](N/C=C2\N=C(c3ccc[nH]3)C3=C2CCCC3)CC1 | 40.8 µL/min/mg | 100% | 5.49 µL/min/mg | 12.4 µM | 366 | Not active; One Mouse Cured Out Of Four | 100% | Not active; None Of The Mouse Cured Out Of Four Tested | – | – | – | –
50.3 min | 31 ×10⁻⁶ cm/s | 0.71 | 22 ×10⁻⁶ cm/s | 1.16 nM | 0.984 nM | 10.3 µM (≈ 3.89 µg/mL) | > 60 min | CCC1=C(CC)/C(=C/NC23C[C@H]4C[C@@H](C2)C[C@@H](C3)C4)N=C1c1ccc(CC)[nH]1 | 18.5 µL/min/mg | 100% | 27.5 µL/min/mg | 1.5 µM | 1580 | Not active; None Of The Mouse Cured Out Of Four Tested | 100% | Not active; None Of The Mouse Cured Out Of Four Tested | 0.95 nM | – | 53% | –
> 60 min | 0.026 ×10⁻⁶ cm/s | 1 | 0.027 ×10⁻⁶ cm/s | 0.348 nM | 0.844 nM | 3.95 µM (≈ 1.44 µg/mL) | > 60 min | CCC1=C(C)/C(=C/NC23C[C@H]4C[C@@H](C2)C[C@@H](C3)C4)N=C1c1ccc(CC)[nH]1 | – | 100% | – | 2.97 µM | 3270 | Not active; None Of The Mouse Cured Out Of Four Tested | 100% | Not active; None Of The Mouse Cured Out Of Four Tested | 0.909 nM | – | 100% | –
43.2 min | 0.27 ×10⁻⁶ cm/s | 0.093 | 0.025 ×10⁻⁶ cm/s | 5.96 nM | 4.46 nM | 167 µM (≈ 59 µg/mL) | 17.6 min | COC1=C(OC)/C(=C/NC23C[C@H]4C[C@@H](C2)C[C@@H](C3)C4)N=C1c1ccc[nH]1 | 78.7 µL/min/mg | 100% | 32.1 µL/min/mg | 4.66 µM | 789 | Not active; None Of The Mouse Cured Out Of Four Tested | 100% | Not active; One Mouse Cured Out Of Four | – | – | 63.1% | –
53.6 min | 1.4 ×10⁻⁶ cm/s | 0.43 | 0.6 ×10⁻⁶ cm/s | 111 nM | 169 nM | 314 µM (≈ 115 µg/mL) | 22.5 min | CCC1=C(CC)/C(=C/N[C@H]2CC[C@H](C(F)(F)F)CC2)N=C1c1ccc[nH]1 | 61.6 µL/min/mg | 100% | 25.9 µL/min/mg | 24.5 µM | 125 | Not active; None Of The Mouse Cured Out Of Four Tested | 100% | Not active; None Of The Mouse Cured Out Of Four Tested | 196 nM | – | 95.7% | –
33 min | 0.27 ×10⁻⁶ cm/s | 0.85 | 0.23 ×10⁻⁶ cm/s | 2.36 nM | 13.1 nM | 185 µM (≈ 57.2 µg/mL) | 25.6 min | C[C@H]1CC[C@H](N/C=C2\N=C(c3ccc[nH]3)C3=C2CCCC3)CC1 | 54.1 µL/min/mg | 100% | 41.9 µL/min/mg | 7.77 µM | 1320 | – | 41.2% | – | 5.88 nM | – | – | –

SMILES | half-life [1] | Papp A→B at 1 h (MDR1 (human) [3]) | efflux ratio at 1 h (MDR1 (human) [4]) | Papp B→A at 1 h (MDR1 (human) [6]) | IC50 (Plasmodium falciparum [7]) | IC50 (Plasmodium falciparum [8]) | solubility [9] | half-life [10] | microsomal CLint at 1 h (in vitro [2]) | Activity (Plasmodium yoelii [5]) | microsomal CLint at 1 h (in vitro [11]) | IC50 (HepG2) | selectivity ratio (in vitro [12]) | Activity (Plasmodium yoelii [13]) | Activity (Plasmodium yoelii [14]) | Activity (Plasmodium yoelii [15]) | IC50 (Plasmodium falciparum [16]) | Activity (Plasmodium yoelii [17]) | Activity (Plasmodium yoelii [18]) | Activity (Plasmodium yoelii [19])
CCc1ccc(C2=N/C(=C\NC3CCCCCC3)C(C)=C2C)[nH]1 | > 60 min | – | – | 0.035 ×10⁻⁶ cm/s | 1.32 nM | 1.55 nM | 93.1 µM (≈ 29 µg/mL) | > 60 min | 6.78 µL/min/mg | 100% | 4.36 µL/min/mg | – | – | – | 94.1% | – | 2.1 nM | 100% | 42.8% | Not active; None Of The Mouse Cured Out Of Four Tested
CCC1=C(C)/C(=C/NC2CCCCCC2)N=C1c1ccc(C)[nH]1 | > 60 min | – | – | – | 18.6 nM | 23.4 nM | 25.7 µM (≈ 8 µg/mL) | 48.9 min | 28.3 µL/min/mg | 100% | 8.16 µL/min/mg | 6.12 µM | – | Not active; None Of The Mouse Cured Out Of Four Tested | 100% | Not active; None Of The Mouse Cured Out Of Four Tested | 29.5 nM | 100% | 55.3% | Active; Three Mouse Cured Out Of Four
CCC1=C(CC)/C(=C/NC2CCCCC2)N=C1c1ccc(CC)[nH]1 | > 60 min | 0.002 ×10⁻⁶ cm/s | – | 0.091 ×10⁻⁶ cm/s | 4.34 nM | 7.09 nM | 31.3 µM (≈ 10.2 µg/mL) | > 60 min | 17 µL/min/mg | 100% | 14.8 µL/min/mg | 5.17 µM | – | Not active; None Of The Mouse Cured Out Of Four Tested | 100% | Active; Two Mouse Cured Out Of Four | 9.03 nM | 100% | 98.9% | Active; Two Mouse Cured Out Of Four
CCC1=C(CC)/C(=C/NC2CCCCCCC2)N=C1c1ccc(C)[nH]1 | > 60 min | 0.006 ×10⁻⁶ cm/s | – | 0.066 ×10⁻⁶ cm/s | 5.75 nM | 4.95 nM | < 3.125 µM | > 60 min | 20.6 µL/min/mg | – | 16.8 µL/min/mg | 3.19 µM | – | – | 100% | Active; Four Mouse Cured Out Of Four | 10.6 nM | 100% | 68.5% | Not active; None Of The Mouse Cured Out Of Four Tested
CCC1=C(C)/C(=C/NC2CCCCCCC2)N=C1c1ccc(C)[nH]1 | > 60 min | 0.063 ×10⁻⁶ cm/s | – | 0.04 ×10⁻⁶ cm/s | 3.43 nM | 4.59 nM | 19.9 µM (≈ 6.48 µg/mL) | 45.4 min | 30.5 µL/min/mg | 100% | 0.47 µL/min/mg | 3.51 µM | – | Not active; None Of The Mouse Cured Out Of Four Tested | 100% | Not active; None Of The Mouse Cured Out Of Four Tested | 6.59 nM | 100% | 96.5% | Active; Three Mouse Cured Out Of Four
CCc1ccc(C2=N/C(=C\NC3CCCCC3)C3=C2CCCC3)[nH]1 | > 60 min | 0.007 ×10⁻⁶ cm/s | – | 0.22 ×10⁻⁶ cm/s | 1.4 nM | 1.41 nM | 19.5 µM (≈ 6.31 µg/mL) | > 60 min | 6.93 µL/min/mg | 100% | 5.71 µL/min/mg | 1.19 µM | – | Not active; None Of The Mouse Cured Out Of Four Tested | 100% | Not active; None Of The Mouse Cured Out Of Four Tested | 3.5 nM | 100% | 43.1% | Not active; None Of The Mouse Cured Out Of Four Tested
